Tested on: 233499-124-R-J3-PDC complex spheroid growth
Test: Anticancer human tumor 233499-124-R-J3-PDC patient-derived colon adenocarcinoma cell line growth inhibition [AhR]
Settings: for IC50: curve of first compound; for viability, T/C: stronger effect = lower value
Outline: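 Complex tumor spheroids co-cultured with HUVEC and human MSC stroma; AhR antagonists tested in combination with standard-of-care and investigational agents. Top concentration at or near clinical Cmax (else 10 microM), half-log dilutions; growth expressed as percent test/control.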
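Also: spheroids exposed to agents for seven days before reading.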

CC1(C)CCC(CN2CCN(c3ccc(C(=O)NS(=O)(=O)c4ccc(NCC5CCOCC5)c([N+](=O)[O-])c4)c(Oc4cnc5[nH]ccc5c4)c3)CC2)=C(c2ccc(Cl)cc2)C1 + CC(CO)NC(=O)c1cc(-c2ccc(Cl)cc2)nn(-c2cnn(C)c2)c1=O
IC50 (second compound 0.1 µM): 6.82 µM | IC50 (second compound 0.316 µM): 7.05 µM | IC50 (second compound 1 µM): 6.78 µM | IC50 (second compound 3.16 µM): 6.62 µM | IC50 (second compound 10 µM): 6.5 µM | viability, T/C (second compound 0.1 µM, first compound 0.0316 µM): 99.8% | viability, T/C (second compound 0.1 µM, first compound 0.1 µM): 89.7% | viability, T/C (second compound 0.1 µM, first compound 0.316 µM): 97.5% | viability, T/C (second compound 0.1 µM, first compound 1 µM): 102% | viability, T/C (second compound 0.1 µM, first compound 3.16 µM): 108% | viability, T/C (second compound 0.1 µM, first compound 10 µM): 25.3% | viability, T/C (second compound 0.316 µM, first compound 0.0316 µM): 94.5% | viability, T/C (second compound 0.316 µM, first compound 0.1 µM): 91.2% | viability, T/C (second compound 0.316 µM, first compound 0.316 µM): 91.1% | viability, T/C (second compound 0.316 µM, first compound 1 µM): 90.7% | viability, T/C (second compound 0.316 µM, first compound 3.16 µM): 109% | viability, T/C (second compound 0.316 µM, first compound 10 µM): 30.4% | viability, T/C (second compound 1 µM, first compound 0.0316 µM): 97.4% | viability, T/C (second compound 1 µM, first compound 0.1 µM): 96.5% | viability, T/C (second compound 1 µM, first compound 0.316 µM): 90.7% | viability, T/C (second compound 1 µM, first compound 1 µM): 104% | viability, T/C (second compound 1 µM, first compound 3.16 µM): 103% | viability, T/C (second compound 1 µM, first compound 10 µM): 25.5% | viability, T/C (second compound 3.16 µM, first compound 0.0316 µM): 97.5% | viability, T/C (second compound 3.16 µM, first compound 0.1 µM): 92.1% | viability, T/C (second compound 3.16 µM, first compound 0.316 µM): 94.5% | viability, T/C (second compound 3.16 µM, first compound 1 µM): 106% | viability, T/C (second compound 3.16 µM, first compound 3.16 µM): 96.8% | viability, T/C (second compound 3.16 µM, first compound 10 µM): 23.8% | viability, T/C (second compound 10 µM, first compound 0.0316 µM): 79.2% | viability, T/C (second compound 10 µM, first compound 0.1 µM): 89.5% | viability, T/C (second compound 10 µM, first compound 0.316 µM): 86.8% | viability, T/C (second compound 10 µM, first compound 1 µM): 90.9% | viability, T/C (second compound 10 µM, first compound 3.16 µM): 92.9% | viability, T/C (second compound 10 µM, first compound 10 µM): 27.4%

CCN(c1cc(-c2ccc(CN3CCOCC3)cc2)cc(C(=O)NCc2c(C)cc(C)[nH]c2=O)c1C)C1CCOCC1 + CC(CO)NC(=O)c1cc(-c2ccc(Cl)cc2)nn(-c2cnn(C)c2)c1=O
IC50 (second compound 0.1 µM): > 3 µM | IC50 (second compound 0.316 µM): > 3 µM | IC50 (second compound 1 µM): > 3 µM | IC50 (second compound 3.16 µM): > 3 µM | IC50 (second compound 10 µM): > 3 µM | viability, T/C (second compound 0.1 µM, first compound 0.00949 µM): 100% | viability, T/C (second compound 0.1 µM, first compound 0.03 µM): 86.8% | viability, T/C (second compound 0.1 µM, first compound 0.0949 µM): 88.2% | viability, T/C (second compound 0.1 µM, first compound 0.3 µM): 82.9% | viability, T/C (second compound 0.1 µM, first compound 0.949 µM): 93.5% | viability, T/C (second compound 0.1 µM, first compound 3 µM): 94.3% | viability, T/C (second compound 0.316 µM, first compound 0.00949 µM): 103% | viability, T/C (second compound 0.316 µM, first compound 0.03 µM): 98.6% | viability, T/C (second compound 0.316 µM, first compound 0.0949 µM): 94.9% | viability, T/C (second compound 0.316 µM, first compound 0.3 µM): 85.6% | viability, T/C (second compound 0.316 µM, first compound 0.949 µM): 99.9% | viability, T/C (second compound 0.316 µM, first compound 3 µM): 83.8% | viability, T/C (second compound 1 µM, first compound 0.00949 µM): 95.6% | viability, T/C (second compound 1 µM, first compound 0.03 µM): 96.1% | viability, T/C (second compound 1 µM, first compound 0.0949 µM): 91% | viability, T/C (second compound 1 µM, first compound 0.3 µM): 95.4% | viability, T/C (second compound 1 µM, first compound 0.949 µM): 88.4% | viability, T/C (second compound 1 µM, first compound 3 µM): 90.2% | viability, T/C (second compound 3.16 µM, first compound 0.00949 µM): 88% | viability, T/C (second compound 3.16 µM, first compound 0.03 µM): 82% | viability, T/C (second compound 3.16 µM, first compound 0.0949 µM): 85.6% | viability, T/C (second compound 3.16 µM, first compound 0.3 µM): 91.9% | viability, T/C (second compound 3.16 µM, first compound 0.949 µM): 98.7% | viability, T/C (second compound 3.16 µM, first compound 3 µM): 86.6% | viability, T/C (second compound 10 µM, first compound 0.00949 µM): 80.9% | viability, T/C (second compound 10 µM, first compound 0.03 µM): 77.2% | viability, T/C (second compound 10 µM, first compound 0.0949 µM): 79.7% | viability, T/C (second compound 10 µM, first compound 0.3 µM): 82.5% | viability, T/C (second compound 10 µM, first compound 0.949 µM): 73.5% | viability, T/C (second compound 10 µM, first compound 3 µM): 83.1%
